Assay results published in patent US20200268768A1, “CENICRIVIROC COMBINATION THERAPY FOR THE TREATMENT OF FIBROSIS” (Tobira Therapeutics, Inc., priority 2015, published 2020).
Counter-ions that a name gives are not always drawn.

Tests used:
[1] = system: HIV-1 infected adult subjects; assay: Study 202 biomarkers of inflammation; assay type: in vivo, human; conditions: EFV 600 mg
Protocol: As an exploratory analysis, levels of inflammation biomarkers MCP-1, sCD14, high sensitivity C-reactive protein [hs-CRP], interleukin-6 [IL-6], D-dimer, and fibrinogen) were measured. Baseline values and changes from baseline at Week 24 and Week 48 of MCP-1, sCD14, hs-CRP, IL-6, D-dimer, and fibrinogen are summarized in Table 22.
The sCD14 samples were originally analyzed in 2 separate batches: Batch 1 included samples leading up to the Week 24 primary analysis and Batch 2 included Week 32 and Week 48 (end of study) samples. A repeat analysis of archived samples all analyzed in one batch was conducted for consistency in analysis across time points. To control for the effects of covariates, a linear mixed-model repeated-measures analysis was conducted on the changes from baseline in sCD14 (analysis dated September 2013).

[2] = system: adults with CCR5 tropic HIV-1; assay: Study 202 post-hoc APRI and FIB-4 fibrosis index scores; assay type: in vivo, human
Protocol: APRI and FIB-4 scores were calculated. Change in score category from baseline (BL) to Weeks 24 and 48 was assessed in patients with non-missing data. Correlations between changes from BL in APRI and FIB-4 scores, and MCP-1 (CCR2 ligand) and sCD14 (inflammatory biomarker) levels were evaluated.

[3] = Solubility of cenicriviroc mesylate; assay type: physicochemical
[4] = Week 24, CVC pooled 100 and 200 mg, or EFV
[5] = Week 48, CVC pooled 100 and 200 mg, or EFV

O=C1Nc2ccc(Cl)cc2[C@@](C#CC2CC2)(C(F)(F)F)O1 [EFV, efavirenz, reference compound]
sCD14 (original values) change from baseline, mean ([1]; Week 12): 90000 pg/mL | sCD14 (original values) change from baseline, median ([1]; Week 12): 180000 pg/mL | D-dimer change from baseline, mean ([1]; Week 24): -53 ng/mL | D-dimer change from baseline, median ([1]; Week 24): -26 ng/mL | Fibrinogen change from baseline, mean ([1]; Week 24): -28 mg/dL | Fibrinogen change from baseline, median ([1]; Week 24): -31 mg/dL | IL-6 change from baseline, mean ([1]; Week 24): -8.72 pg/mL | IL-6 change from baseline, median ([1]; Week 24): 0.00 pg/mL | MCP-1 change from baseline, mean ([1]; Week 24): -44 pg/mL | MCP-1 change from baseline, median ([1]; Week 24): -17 pg/mL | hs-CRP change from baseline, mean ([1]; Week 24): -0.46 mg/dL | hs-CRP change from baseline, median ([1]; Week 24): -0.01 mg/dL | sCD14 (original values) change from baseline, mean ([1]; Week 24): 230000 pg/mL | sCD14 (original values) change from baseline, median ([1]; Week 24): 130000 pg/mL | sCD14 (original values) change from baseline, mean ([1]; Week 32): 480000 pg/mL | sCD14 (original values) change from baseline, median ([1]; Week 32): 170000 pg/mL | D-dimer change from baseline, mean ([1]; Week 48): -34 ng/mL | D-dimer change from baseline, median ([1]; Week 48): 0.0 ng/mL | Fibrinogen change from baseline, mean ([1]; Week 48): -30 mg/dL | Fibrinogen change from baseline, median ([1]; Week 48): -22 mg/dL | IL-6 change from baseline, mean ([1]; Week 48): -13.11 pg/mL | IL-6 change from baseline, median ([1]; Week 48): 0.00 pg/mL | MCP-1 change from baseline, mean ([1]; Week 48): 4.2 pg/mL | MCP-1 change from baseline, median ([1]; Week 48): 33.6 pg/mL | hs-CRP change from baseline, mean ([1]; Week 48): -0.71 mg/dL | hs-CRP change from baseline, median ([1]; Week 48): -0.03 mg/dL | sCD14 (original values) change from baseline, median ([1]; Week 48): 460000 pg/mL | Subjects with decrease in FIB-4 score by one category ([2]; EFV arm, all subjects <1.45 at baseline): no subject treated with EFV decreased in FIB-4 score by one category | Subjects in APRI category <0.5 [2, 4]: 100% | Subjects in FIB-4 category <1.45 [2, 4]: 100% | Subjects with APRI decreased 1 category from baseline [2, 4]: 5% | Subjects in APRI category <0.5 [2, 5]: 100% | Subjects in FIB-4 category 1.45-3.25 [2, 5]: 6% | Subjects in FIB-4 category <1.45 [2, 5]: 94% | Subjects with APRI decreased 1 category from baseline [2, 5]: 6%

CCCCOCCOc1ccc(-c2ccc3c(c2)C=C(C(=O)Nc2ccc([S@@+]([O-])Cc4cncn4CCC)cc2)CCCN3CC(C)C)cc1 [cenicriviroc mesylate, (S)-8-[4-(2-Butoxyethoxy)phenyl]-1-isobutyl-N-(4-{[(1-propyl-1H-imidazol-5-yl)methyl]sulfinyl}phenyl)-1,2,3,4-tetrahydro-1-benzazocine-5-carboxamide monomethanesulfonoate]
Solubility ([3]; aqueous solution at pH 3): sparingly soluble | Solubility ([3]; aqueous solution from pH 1 to 2): freely soluble | Solubility ([3]; aqueous solution from pH 4 to 13 and in water): practically insoluble | Solubility ([3]; in 99.5% ethanol): sparingly soluble | Solubility ([3]; in acetonitrile, 1-octanol, tetrahydrofuran): slightly soluble | Solubility ([3]; in ethyl acetate and diethylether): practically insoluble | Solubility ([3]; in glacial acetic acid, methanol, benzyl alcohol, dimethylsulfoxide, N,N-dimethylformamide): freely soluble | Solubility ([3]; in pyridine and acetic anhydride): soluble
